These results are taken from PMC10709440, “High-throughput ligand profile characterization in novel cell lines expressing seven heterologous insect olfactory receptors for the detection of volatile plant biomarkers” (Scientific Reports, 2023).

Like-named read-outs stand apart in the source and are kept apart here.

In one test the target is T1, Drosophila OR49b (Drosophila melanogaster, UniProt Q9V6H2).
T1 construct: expressed in transfected cells
T1 sequence (Q9V6H2 1-375): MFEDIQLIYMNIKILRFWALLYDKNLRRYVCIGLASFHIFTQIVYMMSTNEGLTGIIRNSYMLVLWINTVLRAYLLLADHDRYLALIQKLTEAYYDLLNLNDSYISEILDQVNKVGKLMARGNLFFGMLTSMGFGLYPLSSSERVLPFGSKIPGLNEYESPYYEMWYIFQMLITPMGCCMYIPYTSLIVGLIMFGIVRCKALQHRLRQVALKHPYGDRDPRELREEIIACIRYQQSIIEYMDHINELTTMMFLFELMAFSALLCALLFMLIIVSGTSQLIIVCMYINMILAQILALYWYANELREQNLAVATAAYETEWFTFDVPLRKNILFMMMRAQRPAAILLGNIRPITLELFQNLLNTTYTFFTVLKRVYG
T1 sequence (Q9VNB5 1-486 partner): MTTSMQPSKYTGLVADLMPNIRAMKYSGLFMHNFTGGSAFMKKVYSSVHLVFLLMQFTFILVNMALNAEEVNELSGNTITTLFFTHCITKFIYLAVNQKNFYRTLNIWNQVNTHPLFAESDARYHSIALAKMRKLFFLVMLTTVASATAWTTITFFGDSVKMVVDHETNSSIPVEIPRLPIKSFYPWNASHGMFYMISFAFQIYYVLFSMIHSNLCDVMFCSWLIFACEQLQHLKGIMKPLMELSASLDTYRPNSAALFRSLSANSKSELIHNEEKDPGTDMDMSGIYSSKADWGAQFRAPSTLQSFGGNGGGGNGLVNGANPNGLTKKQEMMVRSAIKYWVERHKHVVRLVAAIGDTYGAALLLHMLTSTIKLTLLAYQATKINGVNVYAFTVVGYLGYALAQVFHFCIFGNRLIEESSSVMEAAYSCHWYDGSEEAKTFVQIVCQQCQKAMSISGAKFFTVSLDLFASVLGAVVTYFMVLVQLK
The experiment in a line: cell-based. The conditions noted are these: for Average response: mean of biological replicates. The essentials:
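HEK293 lines stably expressing each Drosophila OR with GCaMP6, doxycycline-induced (1 μg/mL) 48 or 72 h. Fluorescence recorded 5 s baseline then 30 s after VOC injection at pH 7.3; ΔF=(FMAX−F0)/F0, normalized to 50 µM VUAA1 response per line, triplicate wells averaged; concentration series 0.01–100 μM.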

The target of a further test is T2, Drosophila OR13a (Drosophila melanogaster, UniProt Q9VXL0).
T2 construct: expressed in transfected cells
T2 sequence (Q9VXL0 1-418): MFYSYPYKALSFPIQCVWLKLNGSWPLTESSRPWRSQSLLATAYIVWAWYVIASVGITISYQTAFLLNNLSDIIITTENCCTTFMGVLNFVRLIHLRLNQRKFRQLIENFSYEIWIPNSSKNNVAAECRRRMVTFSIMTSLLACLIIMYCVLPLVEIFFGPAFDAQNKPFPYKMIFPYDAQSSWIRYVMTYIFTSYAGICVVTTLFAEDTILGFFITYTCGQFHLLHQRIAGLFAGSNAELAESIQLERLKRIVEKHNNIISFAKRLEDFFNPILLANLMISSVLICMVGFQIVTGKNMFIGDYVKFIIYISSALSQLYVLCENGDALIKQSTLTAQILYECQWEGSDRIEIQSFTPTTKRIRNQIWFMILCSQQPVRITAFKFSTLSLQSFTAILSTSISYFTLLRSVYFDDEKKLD
T2 sequence (Q9VNB5 1-486 partner): T1 sequence (Q9VNB5 1-486 partner)
The experiment in a line: Calcium ion fluorescence (GCaMP6) assay, OR13a stable HEK293 cell line. It is filed as cell-based. The procedure: These VUAA1 normalized ∆F values were used to compare the different receptors and ligands.
The concentration-dependent effect of the reference ligands on their cognate cell lines was examined in more detail. Twelve different ligand concentrations were measured on each cell line in an overall 0.01 μM to 100 μM concentration range with 5 repetitions with three technical replicates each time.
Twelve thousand to 18,000 cells were plated into each well of a black wall, transparent bottom 384-well microplate (Greiner) 48 h or 72 h before the measurements and were simultaneously treated with 1 μg/mL doxycycline. […] The plate has 24 columns, thus we could record responses in up to eight different cell lines in each plate. On the day of the experiment, the growth medium was replaced with 20 µL assay buffer/well (140 mM NaCl, 5 mM KCl, 2 mM CaCl2, 1 mM MgCl2, 5 mM HEPES-Na, 20 mM glucose, pH 7.3, 340 mOsm). […] Baseline fluorescence (F0) was recorded for 5 s, after which 7 µL VOC buffer (140 mM NaCl, 5 mM KCl, 2 mM CaCl2, 1 mM MgCl2, 5 mM HEPES-Na, 31 mM glucose, 0.1% DMSO, pH 7.3, 340 mOsm) was injected into each well in one row and the fluorescence response was recorded for an additional 30 s, at a rate of one read/sec. VOC solutions (VOC buffer with 4× concentration of the final measured VOC concentration, 9 µL/well was injected) were measured on the same wells in a second round with the same protocol. Each individual concentration of a specific VOC sample was recorded in three wells for the same cell line on the same microplate. The raw data were exported in xls file format, F0 and FMAX values, and the fluorescence intensity changes (∆F) were calculated in Excel (Microsoft) (Supplementary file Data summary.xlsx) using the following equation: ΔF=FMAX-F0/F0 (see also Fig. 1C). On each plate, we recorded the response of each cell line to 50 µM VUAA1. The average of these ∆F values of each cell line were used to calculate the VUAA1-normalized values for the rest of the plate, by dividing VOC response ∆F values by the average VUAA1 response ∆F value of the corresponding OR cell line. Each VOC-OR combination was measured three times as technical replicates. […] The average of these replicates were used as one ∆F and VUAA1-normalized ∆F in the following analysis.
In the next rows we tested the reference VOCs (or other VOCs known to activate the corresponding cell lines), in order to test if all cell lines are responsive. The remaining rows were used to test VOCs with unknown effect.
The recorded FMAX, F0, ∆F, VUAA1-normalized ∆F values, as well as the OR name, the name of the tested sample, and the final concentration for each well were copied into supplementary file Data summary.xlsx, that was used to summarize all the plates recorded. Here, the averages of the measurements were calculated for each receptor-VOC-concentration combination.

Where [1] appears, read: HEK293, VOC concentration 1 μM, read-out: OR49b response (VUAA1-normalized response).
[2] abbreviates: HEK293, VOC concentration 10 μM, read-out: OR49b response (VUAA1-normalized response).
The mark [3] stands for this setting: HEK293, VOC concentration 100 μM, read-out: OR49b response (VUAA1-normalized response).
Setting [4] is: OR49b cell line, odorant cc. 1 µM.
[5] abbreviates: OR49b cell line, odorant cc. 10 µM.
[6] abbreviates: OR49b cell line, odorant cc. 100 µM.
Where [7] appears, read: HEK293, read-out: OR13a Average response (VUAA1-normalized), 1 μM VOC, 50 μM VUAA1 = 1, responses not exceeding 0.05 considered 0.
Setting [8] is: HEK293, read-out: OR13a Average response (VUAA1-normalized), 10 μM VOC, 50 μM VUAA1 = 1, responses not exceeding 0.05 considered 0.
The mark [9] stands for this setting: HEK293, read-out: OR13a Average response (VUAA1-normalized), 100 μM VOC, 50 μM VUAA1 = 1, responses not exceeding 0.05 considered 0.
Setting [10] is: HEK293, read-out: OR13a response (VUAA1-normalized response), VOC concentration 1 μM.
The mark [11] stands for this setting: HEK293, read-out: OR13a response (VUAA1-normalized response), VOC concentration 10 μM.
Where [12] appears, read: HEK293, read-out: OR13a response (VUAA1-normalized response), VOC concentration 100 μM.
[13] abbreviates: concentration 1, normalized fluorescence change, values below 0.05 threshold given as 0.
Setting [14] is: concentration 10, normalized fluorescence change, values below 0.05 threshold given as 0.
Where [15] appears, read: concentration 100, normalized fluorescence change, values below 0.05 threshold given as 0.
Setting [16] is: HEK293, read-out: OR49b Average response (VUAA1-normalized).
The mark [17] stands for this setting: HEK293, read-out: OR49b response (VUAA1-normalized response).
The mark [18] stands for this setting: ligand concentration 1 (unit not given), threshold 0.05, below shown as 0.
Setting [19] is: ligand concentration 10 (unit not given), threshold 0.05, below shown as 0.
[20] abbreviates: ligand concentration 100 (unit not given), threshold 0.05, below shown as 0.

As for `CCCC(O)CC` (stereo not drawn) [3-hexanol], the activation at 1 µM came out at 23% on Drosophila OR49b (setting [1]), 5% on Drosophila OR13a (setting [7]) and 0% at Drosophila OR13a (setting [10]). Moreover, the activation at 10 µM stood at 20% at Drosophila OR49b (setting [2]), 4.43% at Drosophila OR13a (setting [8]) and 0% at Drosophila OR13a (setting [11]). In addition, the activation at 100 µM amounted to 8% at Drosophila OR49b (setting [3]), 1.88% at Drosophila OR13a (setting [9]) and 0% on Drosophila OR13a (setting [12]). The values for the Average response on Drosophila OR49b (setting [4]), at Drosophila OR49b (setting [5]) and at Drosophila OR49b (setting [6]) were 0.23, 0.20 and 0.08, respectively. Further, the “DF norm AVERAGE OR13a” value on Drosophila OR13a (setting [13]), on Drosophila OR13a (setting [14]) and on Drosophila OR13a (setting [15]) was 0 throughout.
On to `CCCCCO` [1-pentanol], for which the “DF norm AVERAGE OR49b” value on Drosophila OR49b is given as 0. In addition, the activation at 1 µM at Drosophila OR49b (setting [1]), at Drosophila OR13a (setting [7]) and at Drosophila OR13a (setting [10]) was 0% in each case. Moreover, the results for the activation at 10 µM at Drosophila OR49b (setting [2]), on Drosophila OR13a (setting [8]) and at Drosophila OR13a (setting [11]) were 0%, 1.6% and 0%, respectively. Moreover, the activation at 100 µM at Drosophila OR49b (setting [3]), at Drosophila OR13a (setting [9]) and on Drosophila OR13a (setting [12]) was 0% in each case. The figures for the Average response at Drosophila OR49b (setting [4]), on Drosophila OR49b (setting [5]) and on Drosophila OR49b (setting [6]) were 0.00, 0.00 and 0.0167, respectively. In addition, the “DF norm AVERAGE OR13a” value at Drosophila OR13a (setting [13]), at Drosophila OR13a (setting [14]) and at Drosophila OR13a (setting [15]) was 0 each time.
Consider `CCCCOC(C)=O` [butyl acetate], for which the activation at 1 µM at Drosophila OR49b (setting [16]), on Drosophila OR49b (setting [17]), on Drosophila OR13a (setting [7]) and on Drosophila OR13a (setting [10]) was 0% in each case. Besides, the activation at 10 µM at Drosophila OR49b (setting [16]), at Drosophila OR49b (setting [17]), on Drosophila OR13a (setting [8]) and at Drosophila OR13a (setting [11]) was 0% throughout. Further, the activation at 100 µM on Drosophila OR49b (setting [17]) is 20%; on Drosophila OR13a (setting [9]), 1.56%; on Drosophila OR13a (setting [12]), 0%. Further, the “DF norm AVERAGE OR13a” value at Drosophila OR13a (setting [18]), at Drosophila OR13a (setting [19]) and at Drosophila OR13a (setting [20]) was 0 each time.
`CCCCCOC(C)=O` [pentyl acetate]: the “OR49b response (VUAA1-normalized) at 1 μM” value on Drosophila OR49b (OR49b cell line, VOC concentration 1 μM) was 0.08. For the same molecule, the “OR49b response (VUAA1-normalized) at 10 μM” value on Drosophila OR49b (OR49b cell line, VOC concentration 10 μM) was found to be 0.00. Also, at Drosophila OR49b (OR49b cell line, VOC concentration 100 μM), the “OR49b response (VUAA1-normalized) at 100 μM” value was found to be 0.06. The Average response at Drosophila OR49b (setting [4]) turned out to be 0.08; at Drosophila OR49b (setting [5]), 0.0108; on Drosophila OR49b (setting [6]), 0.06. For the same molecule, the entries for the “DF norm AVERAGE OR49b” value at Drosophila OR49b (setting [18]), on Drosophila OR49b (setting [19]) and on Drosophila OR49b (setting [20]) were 0.07954, 0 and 0.06097, respectively. The activation at 1 µM at Drosophila OR13a (setting [7]) stood at 4%. Besides, on Drosophila OR13a (setting [8]), the activation at 10 µM was determined as 0.671%. For the same molecule, at Drosophila OR13a (setting [9]), the activation at 100 µM was determined as 4.32%. Besides, the “OR13a response (VUAA1-normalized) at 1 μM” value at Drosophila OR13a (OR13a cell line, VOC concentration 1 μM) was found to be 0.00. Also, the “OR13a response (VUAA1-normalized) at 10 μM” value at Drosophila OR13a (OR13a cell line, VOC concentration 10 μM) is reported as 0.00. Besides, on Drosophila OR13a (OR13a cell line, VOC concentration 100 μM), the “OR13a response (VUAA1-normalized) at 100 μM” value is recorded as 0.00. Also, the “DF norm AVERAGE OR13a” value at Drosophila OR13a (setting [18]), at Drosophila OR13a (setting [19]) and on Drosophila OR13a (setting [20]) was 0 each time.
`CCCCCC(C)O` (stereo not drawn) [2-heptanol]: the activation at 1 µM on Drosophila OR49b (setting [1]) is 0%; on Drosophila OR13a (setting [7]) it was 4%; on Drosophila OR13a (setting [10]), 0%. Also, the activation at 10 µM on Drosophila OR49b (setting [2]), on Drosophila OR13a (setting [8]) and at Drosophila OR13a (setting [11]) was 0% in each case. Moreover, the figures for the activation at 100 µM at Drosophila OR49b (setting [3]), at Drosophila OR13a (setting [9]) and at Drosophila OR13a (setting [12]) were 6.51%, 8% and 8%, respectively. Moreover, the results for the Average response on Drosophila OR49b (setting [4]), on Drosophila OR49b (setting [5]) and at Drosophila OR49b (setting [6]) were 0.00, 0.00 and 0.0651, respectively. The figures for the “DF norm AVERAGE OR13a” value on Drosophila OR13a (setting [13]), at Drosophila OR13a (setting [14]) and on Drosophila OR13a (setting [15]) were 0, 0 and 0.07697, respectively.
